Holding throughout (type): cell-based
Test [1] deals with S. aureus hVISA. The experiment in a line: MIC (broth microdilution or agar dilution, CLSI). The note with it: Staphylococcus aureus; S. aureus hVISA; read-out: MIC. In short, it runs like this:
(§1)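 Isolates other than streptococci and anaerobes, which had their own procedures, were grown overnight at 35° C on tryptic soy agar with 5% sheep blood. Suspensions were then diluted to a final inoculum of 5×10^5 CFU/mL in broth microdilution wells.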

The test system of test [2] is A. baumannii ATCC 19606. The experiment in a line: MIC (broth microdilution or agar dilution, CLSI). The note with it: Acinetobacter baumannii, ATCC19606; A. baumannii ATCC 19606; read-out: MIC. In short, it runs like this: as §1
The test system of test [3] is E. coli ATCC 25922. The test can be described thus: MIC (broth microdilution or agar dilution, CLSI). The conditions noted are these: Escherichia coli, ATCC25922; E. coli ATCC 25922; read-out: MIC. In short, it runs like this:
as §1
On the technique in general: In broth dilution the organism is exposed to a series of concentrations in liquid medium.

Test [4] relates to S. pneumoniae MMX 3031 cMefA. The test can be described thus: MIC (broth microdilution or agar dilution, CLSI). The conditions noted are these: Streptococcus pneumoniae, MMX3031CMEFA, S. pneumoniae MMX 3031 cMefA; read-out: MIC. In short, it runs like this: as §1
In test [5] the test system is S. aureus ATCC 700699. The test can be described thus: MIC (broth microdilution or agar dilution, CLSI). The conditions noted are these: Staphylococcus aureus, ATCC700699; S. aureus ATCC 700699; read-out: MIC. In short, it runs like this: as §1
Test [6] deals with S. pyogenes MMX 946; cErmB. The test can be described thus: MIC (broth microdilution or agar dilution, CLSI). The note with it: Streptococcus pyogenes; S. pyogenes MMX 946; cErmB; read-out: MIC. In short, it runs like this:
as §1

In test [7] the test system is S. aureus ATCC 29213. The test can be described thus: MIC (broth microdilution or agar dilution, CLSI). The note with it: Staphylococcus aureus, ATCC29213, S. aureus ATCC 29213; read-out: MIC. In short, it runs like this: as §1
The subject of test [8] is S. pneumoniae ATCC 49619. The test can be described thus: MIC (broth microdilution or agar dilution, CLSI). The note with it: Streptococcus pneumoniae, ATCC49619, S. pneumoniae ATCC 49619; read-out: MIC. In short, it runs like this: as §1
For test [9], the system named is S. aureus ATCC BAA-1707 (MRSA). The experiment in a line: MIC (broth microdilution or agar dilution, CLSI). The conditions noted are these: Staphylococcus aureus; S. aureus ATCC BAA-1707 (MRSA); read-out: MIC. In short, it runs like this:
as §1

In test [10] the test system is E. faecalis MMX 847; cErmB. The experiment in a line: MIC (broth microdilution or agar dilution, CLSI). The conditions noted are these: Enterococcus faecalis; E. faecalis MMX 847; cErmB; read-out: MIC. In short, it runs like this:
as §1

In test [11] the test system is S. pyogenes ATCC 19615. The experiment in a line: MIC (broth microdilution or agar dilution, CLSI). The note with it: Streptococcus pyogenes, ATCC19615, S. pyogenes ATCC 19615; read-out: MIC. In short, it runs like this:
as §1

Test [12] relates to E. coli LptD. The experiment in a line: MIC (broth microdilution or agar dilution, CLSI). The conditions noted are these: Escherichia coli, E. coli LptD; read-out: MIC. In short, it runs like this: as §1
For test [13], the system named is E. faecalis ATCC 29212. The test can be described thus: MIC (broth microdilution or agar dilution, CLSI). The conditions noted are these: Enterococcus faecalis, ATCC29212, E. faecalis ATCC 29212; read-out: MIC. In short, it runs like this:
as §1

Test [14] deals with S. pneumoniae ATCC 6303. The experiment in a line: MIC (broth microdilution or agar dilution, CLSI). The conditions noted are these: Streptococcus pneumoniae, ATCC6303; S. pneumoniae ATCC 6303; read-out: MIC. In short, it runs like this:
as §1

Test [15] concerns K. oxytoca Clinical. The test can be described thus: MIC (broth microdilution or agar dilution, CLSI). The note with it: Klebsiella oxytoca; K. oxytoca Clinical; read-out: MIC. In short, it runs like this: as §1
The subject of test [16] is S. pneumoniae MMX 3028 cErmB. The test can be described thus: MIC (broth microdilution or agar dilution, CLSI). The conditions noted are these: Streptococcus pneumoniae, MMX3028CERMB; S. pneumoniae MMX 3028 cErmB; read-out: MIC. In short, it runs like this:
as §1

The subject of test [17] is E. faecalis VRE. The experiment in a line: MIC (CLSI), second E. faecalis VRE line of Table 4. The conditions noted are these: Enterococcus faecalis; E. faecalis VRE (Table 4, second VRE line); read-out: MIC. As for the experimental part: (§2) Minimum inhibitory concentrations (MICs) were determined by broth microdilution method or agar dilution method following the Clinical and Laboratory Standards Institute guidelines. Standard bacterial strains were obtained from American Type Culture Collection (ATCC). Other bacterial strains were obtained from hospitals and commercial sources, so noted in Table 11. Before the start of the MIC experiment, standard and test compound stock solutions were prepared in dimethyl sulfoxide (DMSO, Aldrich D2650) at a stock concentration of 5,120 μg/mL. The compound concentration range typically employed for each experiment was 128-0.06 μg/mL (2.5% final DMSO concentration). Clindamycin was used as a comparator in all experiments and each experiment was performed in triplicate. Specialized procedures were employed for streptococcal and anaerobic strains. All other bacterial strains were sub-cultured on blood agar plates (tryptic soy agar with 5% sheep blood, Hardy Diagnostics) and incubated overnight at 35° C. Organisms were suspended in cation-adjusted Mueller-Hinton broth (CaMHB, BD 212322) and optical density was adjusted to 0.5 McFarland standard. Suspensions were further diluted to obtain a final inoculum of 5×10^5 CFU/mL for broth microdilution experiments.

Test [18] concerns S. aureus MRSA. The test can be described thus: MIC (broth microdilution or agar dilution, CLSI). The conditions noted are these: Staphylococcus aureus. In short, it runs like this: (§3)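 Triplicate CLSI determinations by broth or agar dilution, compound at 128-0.06 μg/mL in 2.5% DMSO; special handling for anaerobes. Broth microdilution used 5×10^5 CFU/mL inocula in cation-adjusted Mueller-Hinton broth.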

Test [19] concerns S. aureus cErmA. The experiment in a line: MIC (broth microdilution or agar dilution, CLSI). The note with it: Staphylococcus aureus; S. aureus cErmA; read-out: MIC. In short, it runs like this:
as §3

Test [20] concerns E. faecium VRE. The experiment in a line: MIC (broth microdilution or agar dilution, CLSI). The note with it: Enterococcus faecium; E. faecium VRE; read-out: MIC. In short, it runs like this: as §3
The subject of test [21] is E. faecium Line R & VRE. The experiment in a line: MIC (broth microdilution or agar dilution, CLSI). The conditions noted are these: Enterococcus faecium, E. faecium Line R & VRE, read-out: MIC. In short, it runs like this: as §3
Test [22] relates to P. aeruginosa ATCC 27853. The experiment in a line: MIC (broth microdilution or agar dilution, CLSI). The note with it: Pseudomonas aeruginosa, ATCC27853; P. aeruginosa ATCC 27853; read-out: MIC. In short, it runs like this: as §3
Test [23] relates to E. faecium Clinical VRE. The test can be described thus: MIC (broth microdilution or agar dilution, CLSI). The conditions noted are these: Enterococcus faecium; E. faecium Clinical VRE; read-out: MIC. In short, it runs like this:
as §3

For test [24], the system named is E. faecalis VRE. The test can be described thus: MIC (CLSI), third E. faecalis VRE line of Table 4. The note with it: Enterococcus faecalis; E. faecalis VRE (Table 4, third VRE line); read-out: MIC. As for the experimental part:
as §2

In test [25] the test system is E. faecalis VRE. The test can be described thus: MIC (CLSI), first E. faecalis VRE line of Table 4. The conditions noted are these: Enterococcus faecalis; E. faecalis VRE (Table 4, first VRE line); read-out: MIC. As for the experimental part:
as §2

The subject of test [26] is E. coli armA. The test can be described thus: microbe, parasite or virus in culture. The conditions noted are these: Escherichia coli, E. coli armA. In short, it runs like this: as §1
Test [27] concerns E. coli ΔTolC. The test can be described thus: microbe, parasite or virus in culture. The conditions noted are these: Escherichia coli, E. coli ΔTolC. In short, it runs like this: as §1
For test [28], the system named is P. aeruginosa ΔAmex OprM. The test can be described thus: MIC (broth microdilution or agar dilution, CLSI). The note with it: Pseudomonas aeruginosa. In short, it runs like this:
as §3

Converted amounts (≈) assume the structure as drawn.

For `CS[C@H]1O[C@H]([C@H](NC(=O)[C@H]2NC[C@@H]3C[C@H](CC(C)C)CCO[C@H]32)[C@H](C)Sc2ccc(CN(C)C)cc2)[C@H](O)[C@H](O)[C@H]1O` [FSA-09-04-092, (4S,5aS,8S,8aR)-N-((1S,2S)-2-((4-((Dimethylamino)methyl)phenyl)thio)-1-((2R,3R,4S,5R,6R)-3,4,5-trihydroxy-6-(methylthio)tetrahydro-2H-pyran-2-yl)propyl)-4-isobutyloctahydro-2H-oxepino[2,3-c]pyrrole-8-carboxamide], the MIC in [1] was 16 µg/mL (≈ 25.6 µM); in test [2], 16 µg/mL (≈ 25.6 µM); in test [3] it was 4 µg/mL (≈ 6.39 µM); in [4], 0.06 µg/mL (≈ 0.0959 µM); in test [5] it was 8 µg/mL (≈ 12.8 µM); in test [6] it was 0.25 µg/mL (≈ 0.399 µM). The MIC in [7] is 0.5 µg/mL (≈ 0.799 µM); in test [8], 0.25 µg/mL (≈ 0.399 µM); in [9], 0.25 µg/mL (≈ 0.399 µM); in test [10] it was 1 µg/mL (≈ 1.6 µM); in [11] it was 0.25 µg/mL (≈ 0.399 µM); in [12], 0.5 µg/mL (≈ 0.799 µM). Also, the MIC in test [13] came to 0.25 µg/mL (≈ 0.399 µM); in test [14] it was 0.06 µg/mL (≈ 0.0959 µM); in [15] it was 8 µg/mL (≈ 12.8 µM); in [16], 0.125 µg/mL (≈ 0.2 µM); in test [17], 8 µg/mL (≈ 12.8 µM); in test [18], 0.25 µg/mL (≈ 0.399 µM). In addition, the MIC in test [19] amounted to 4 µg/mL (≈ 6.39 µM); in [20] it was 4 µg/mL (≈ 6.39 µM); in test [21], 2 µg/mL (≈ 3.2 µM); in test [22] it was 64 µg/mL (≈ 102 µM); in test [23], 1 µg/mL (≈ 1.6 µM); in test [24], 4 µg/mL (≈ 6.39 µM). Moreover, the results for the MIC in [25], in test [26] and in [27] were 4 µg/mL (≈ 6.39 µM), 4 µg/mL (≈ 6.39 µM) and 0.25 µg/mL (≈ 0.399 µM), respectively.
Regarding `C=CC[C@@H]1CCO[C@@H]2[C@H](CN[C@@H]2C(=O)N[C@H]([C@H](C)Cl)[C@H]2OC(SC)[C@H](O)[C@H](O)C2O)C1` (stereo partly drawn) [FSA-10-09-045], the MIC in test [1] stood at 8 µg/mL (≈ 16.7 µM); in test [2], 16 µg/mL (≈ 33.4 µM); in test [4] it was 0.06 µg/mL (≈ 0.125 µM); in test [5], 8 µg/mL (≈ 16.7 µM); in test [6], 1 µg/mL (≈ 2.09 µM); in test [9], 0.06 µg/mL (≈ 0.125 µM). Further, the MIC in test [10] was 8 µg/mL (≈ 16.7 µM); in test [14], 0.06 µg/mL (≈ 0.125 µM); in test [16] it was 0.5 µg/mL (≈ 1.04 µM); in test [17], 32 µg/mL (≈ 66.8 µM); in test [18], 0.06 µg/mL (≈ 0.125 µM); in test [28] it was 2 µg/mL (≈ 4.18 µM). Moreover, the MIC in test [20] was 8 µg/mL (≈ 16.7 µM); in [21] it was 16 µg/mL (≈ 33.4 µM); in test [22], greater than 128 µg/mL; in [24], 8 µg/mL (≈ 16.7 µM); in test [25] it was 16 µg/mL (≈ 33.4 µM); in test [26], 8 µg/mL (≈ 16.7 µM).
`CCC[C@@H]1CCO[C@@H]2[C@H](CN[C@@H]2C(=O)N[C@H]([C@H](C)Cl)[C@H]2OC(SC)[C@H](O)[C@H](O)C2O)C1` (stereo partly drawn) [FSA-10-09-051]: the MIC in test [1] came out at 8 µg/mL (≈ 16.6 µM); in test [2], 8 µg/mL (≈ 16.6 µM); in [4], 0.06 µg/mL (≈ 0.125 µM); in test [5], 4 µg/mL (≈ 8.32 µM); in test [6], 0.5 µg/mL (≈ 1.04 µM); in test [9], 0.06 µg/mL (≈ 0.125 µM). For the same compound, the MIC in test [10] came out at 4 µg/mL (≈ 8.32 µM); in test [14] it was 0.06 µg/mL (≈ 0.125 µM); in test [16], 0.25 µg/mL (≈ 0.52 µM); in test [17] it was 8 µg/mL (≈ 16.6 µM); in test [18], 0.06 µg/mL (≈ 0.125 µM); in [28], 2 µg/mL (≈ 4.16 µM). The MIC was 4 µg/mL (≈ 8.32 µM) in test [20]; 8 µg/mL (≈ 16.6 µM) in [21]; greater than 128 µg/mL in [22]; 2 µg/mL (≈ 4.16 µM) in test [24]; 8 µg/mL (≈ 16.6 µM) in test [25]; 8 µg/mL (≈ 16.6 µM) in [26].
